According to patent US20210260010A1, “COMPOSITIONS AND METHODS FOR THE REDUCTION OR TREATMENT OF INFLAMMATION” (AXCELLA HEALTH INC., priority 2018, published 2021):

Tests used:
Format in all cases: cell-based
MCP1/CCL2 = MCP1/CCL2 secretion by primary human hepatocytes exposed to free fatty acids and TNF-α (ELISA); settings: for MCP1 expression relative to Control- Donor 1, Mean: donor 1 hepatocytes; for MCP1 expression relative to Control- Donor 1, Mean / MCP1 expression relative to Control- Donor 2, Mean: FFA + TNF-α, baseline subtracted; for MCP1 expression relative to Control- Donor 2, Mean: donor 2 hepatocytes; for MCP1/CCL2 secretion (baseline subtracted): primary human hepatocytes from two healthy donors, FFA 250 uM + TNF-α 1 ng/ml
Method: Hepatocyte lipotoxicity appears to be a central driver of hepatic cellular injury via oxidative stress and endoplasmic reticulum (ER) stress. The ability of amino acids to influence steatosis (lipid accumulation) and inflammation in hepatocytes was assessed using human primary hepatocytes (Lonza, TRL).
Primary hepatocytes lot nos. from two healthy human donors were seeded on day 0 at density of 6e04 cells in 96 well optical microplates (Thermofisher) in hepatocyte plating media (William's E medium (Gibco) supplemented with 10% heat-inactivated FBS (Atlanta Bio), 2 mM Glutamax (Gibco) and 0.2% Primocin (InVivoGen) and incubated for 6 hours at 37° C., 5% CO2. After 6 hours, cells were washed twice and incubated overnight at 37° C., 5% CO2 with Hepatocytes defined medium (Corning) supplemented with 2 mM Glutamax (Gibco) and 1× Penicillin/Streptomycin. On day 1, cells were washed twice and incubated for 24 h in the hepatocyte culture media in the same conditions described above.
On day 2, cells were washed twice with DPBS 1× (Gibco) and maintained in amino acid-free WEM (US Biologicals) containing a defined custom amino acid concentration based on the mean physiological concentrations in blood. The values are published in the Human Metabolome Database (Wishart D S, Tzur D, Knox C, et al., HMDB: the Human Metabolome Database. Nucleic Acids Res. January 2007; 35(Database issue):D521-6. 17202168; which is hereby incorporated by reference in its entirety). This custom media is supplemented with 11 mM Glucose, 0.272 mM Sodium Pyruvate, and a dose curve of defined amino acid compositions (i.e., vehicle, LIVRQ+N-acetylcysteine, LIVRQ, RQ+N-acetylcysteine, N-acetylcysteine alone, LIV, or individually with L-Leucine, L-Isoleucine, L-Valine, L-Arginine, L-Glutamine, and L-Cysteine) at various ranges of concentrations. Cells were maintained in this defined media for 24 hours at 37° C., 5% CO2.
After pre-treatment, cells were exposed to free fatty acids (FFA) at 250 uM with a ratio of 2:1 (Oleate:Palmitate) supplemented with TNF-α (Thermofisher) at 1 ng/ml or vehicle. Cells were incubated with the FFAs mixture and the different amino acids combinations for 24 hours at 37° C., 5% CO2. After 24 hours incubation, media was removed for cytokine analysis and replaced by fresh media containing the same stimulus conditions and amino acid concentrations. Cells were incubated for an additional 48 hours for a total of 72 hours of FFA and TNFα stimulation.
Human CCL2 (MCP-1) was measured by ELISA (Human […] DuoSet ELISA, R&D Systems) at ⅕ or 1/10 dilution in 1× Reagent Diluent (Reagent Ancillary Kit 2, R&D Systems). Data were normalized to the specific per well cell density determined by nuclei count stained by Hoechst 3342 (Life technologies) in the fluorescence microscopy described below.

MCP-1 = MCP-1 chemokine secretion by TNFα-stimulated primary human hepatic stellate cells (ELISA); settings: for MCP-1 chemokine secretion, per-cell normalized, fold change from plasma amino acid background: primary human hepatic stellate cells, two donors, TNFα 3 ng/mL, 12 hours; for Fold Change MCP1 Secretion Normalized Per Cell, Mean: donor 3 hepatic stellate cells, TNFα, fold change from plasma amino acid background
Method: (§1) Primary human hepatic stellate cells were obtained from Samsara Sciences and grown in Complete HSC Medium to […] confluence in T75 or T150 flasks below passage 10 were seeded into 96-well plates and incubated for 6 hours at 37° C., 5% CO2 in a humidified incubator. After 6 hours, plates were removed from the incubator washed with DPBS and pretreated (±single amino acid dropout, ±supplemental amino acid dose; see experiment for medium composition) overnight, ˜14-15 hours. After overnight pretreatment, the medium was removed from the cells, and the same pretreatment medium, now supplemented with 3 ng/mL TNFα was applied. Plates were incubated for 12 hours at 37° C., 5% CO2. After 12 hour stimulus with TNFα, supernatant was removed and frozen at −80° C. in two separate aliquots. Plates were washed and incubated with CCK-8 viability reagent (Dojindo) for 1 hour. Viability was measured on the Synergy plate reader. Immediately, the medium was removed and the plates were fixed for immunofluorescence staining.
(§2) Human CCL2/MCP1 and Human IL-6 were measured by ELISA (Human […] DuoSet ELISA, R&D Systems; Human IL-6 DuoSet ELISA, R&D Systems) at ⅕ and 1/20 dilution in 1× Reagent Diluent (Reagent Ancillary Kit 2, R&D Systems). Data were normalized to the specific per well cell density determined by Hoechst stained nuclei count.
Tables 35-38 show per-cell normalized MCP-1 chemokine secretion in primary human hepatic stellate cells from two donors as a fold change from the plasma amino acid background. Statistical significance calculated by one-way ANOVA with Dunnett's multiple comparison test within each treatment group.

IL-6 = IL-6 cytokine secretion by TNFα-stimulated primary human hepatic stellate cells (ELISA); settings: for IL-6 cytokine secretion, per-cell normalized, fold change from plasma amino acid background: primary human hepatic stellate cells, two donors, TNFα 3 ng/mL, 12 hours
Method: as §1, §2
Tables 39-42 show per-cell normalized IL-6 cytokine secretion in primary human hepatic stellate cells from two donors as a fold change from the plasma amino acid background. Statistical significance calculated by one-way ANOVA with Dunnett's multiple comparison test within each treatment group.

[1] = Conc. 153 μM (baseline comparator)

Question: With CC(C)C[C@H](N)C(=O)O [Leucine, L-Leucine] as the compound, how does the “MCP1 expression relative to Control- Donor 1, Mean” value (MCP1/CCL2; [1]) read?
Answer: 5.92E−16

Question: What about the “MCP1 expression relative to Control- Donor 2, Mean” value (MCP1/CCL2; [1]) of the same compound?
Answer: −4.7E−15

Question: What about the “MCP1 expression relative to Control- Donor 1, Mean” value (MCP1/CCL2; Conc. 3054 μM) of the same compound?
Answer: 3.34

Question: What about the “MCP1 expression relative to Control- Donor 2, Mean” value (MCP1/CCL2; Conc. 3054 μM) of the same compound?
Answer: 16.11

Question: What about the “MCP1 expression relative to Control- Donor 1, Mean” value (MCP1/CCL2; Conc. 7635 μM) of the same compound?
Answer: 1.896

Question: And the “MCP1 expression relative to Control- Donor 2, Mean” value (MCP1/CCL2; Conc. 7635 μM)?
Answer: −2.988

Question: And the “MCP1 expression relative to Control- Donor 1, Mean” value (MCP1/CCL2; Conc. 15270 μM)?
Answer: −1.368

Question: And the “MCP1 expression relative to Control- Donor 2, Mean” value (MCP1/CCL2; Conc. 15270 μM)?
Answer: −26.6436

Question: And the “MCP1/CCL2 secretion (baseline subtracted)” value (MCP1/CCL2)?
Answer: did not have an effect

Question: And the “Fold Change MCP1 Secretion Normalized Per Cell” value (MCP-1; donor 3, Conc. 153 μM (plasma background, reference))?
Answer: 1.0000

Question: What about the “Fold Change MCP1 Secretion Normalized Per Cell” value (MCP-1; donor 3, Conc. 3054 μM) of the same compound?
Answer: 1.1479

Question: And the “Fold Change MCP1 Secretion Normalized Per Cell” value (MCP-1; donor 3, Conc. 7635 μM)?
Answer: 1.3054

Question: And the “Fold Change MCP1 Secretion Normalized Per Cell” value (MCP-1; donor 3, Conc. 15270 μM)?
Answer: 1.1808

Question: What about the “Fold Change MCP1 Secretion Normalized Per Cell” value (MCP-1; donor 4, Conc. 153 μM (plasma background, reference)) of the same compound?
Answer: 1.0000

Question: And the “MCP-1 chemokine secretion, per-cell normalized, fold change from plasma amino acid background” value (MCP-1)?
Answer: no significant impact

Question: What about the “Fold Change IL-6 Secretion Normalized Per Cell” value (IL-6; donor 1, Conc. 153 μM (plasma background, reference)) of the same compound?
Answer: 1.0000

Question: And the “Fold Change IL-6 Secretion Normalized Per Cell” value (IL-6; donor 2, Conc. 153 μM (plasma background, reference))?
Answer: 1.0000

Question: What about the “IL-6 cytokine secretion, per-cell normalized, fold change from plasma amino acid background” value (IL-6) of the same compound?
Answer: no significant effect

Question: For CC(=O)N[C@@H](CS)C(=O)O [NAC, N-acetylcysteine], which “MCP1 expression relative to Control- Donor 1, Mean” value (MCP1/CCL2; Conc. 1000 μM) is on record?
Answer: −0.7629

Question: And the “MCP1 expression relative to Control- Donor 2, Mean” value (MCP1/CCL2; Conc. 1000 μM)?
Answer: 1.602

Question: What about the “MCP1 expression relative to Control- Donor 1, Mean” value (MCP1/CCL2; Conc. 2500 μM) of the same compound?
Answer: −2.498

Question: And the “MCP1 expression relative to Control- Donor 2, Mean” value (MCP1/CCL2; Conc. 2500 μM)?
Answer: −4.0591

Question: And the “MCP1 expression relative to Control- Donor 1, Mean” value (MCP1/CCL2; Conc. 5000 μM)?
Answer: −10.8919

Question: What about the “MCP1 expression relative to Control- Donor 2, Mean” value (MCP1/CCL2; Conc. 5000 μM) of the same compound?
Answer: −10.5725

Question: And the “MCP1 expression relative to Control- Donor 1, Mean” value (MCP1/CCL2; Conc. 10000 μM)?
Answer: −17.6065

Question: What about the “MCP1 expression relative to Control- Donor 2, Mean” value (MCP1/CCL2; Conc. 10000 μM) of the same compound?
Answer: −28.4419

Question: What about the “MCP1 expression relative to Control- Donor 1, Mean” value (MCP1/CCL2; Conc. 5 X) of the same compound?
Answer: −0.7629

Question: And the “MCP1 expression relative to Control- Donor 1, Mean” value (MCP1/CCL2; Conc. 10 X)?
Answer: −2.498

Question: What about the “MCP1 expression relative to Control- Donor 1, Mean” value (MCP1/CCL2; Conc. 20 X) of the same compound?
Answer: −10.8919

Question: And the “MCP1 expression relative to Control- Donor 1, Mean” value (MCP1/CCL2; Conc. 40 X)?
Answer: −17.6065

Question: What about the “MCP1 expression relative to Control- Donor 2, Mean” value (MCP1/CCL2; Conc. (X) 1000) of the same compound?
Answer: 1.602

Question: And the “MCP1 expression relative to Control- Donor 2, Mean” value (MCP1/CCL2; Conc. (X) 2500)?
Answer: −4.0591

Question: What about the “MCP1 expression relative to Control- Donor 2, Mean” value (MCP1/CCL2; Conc. (X) 5000) of the same compound?
Answer: −10.5725

Question: And the “MCP1 expression relative to Control- Donor 2, Mean” value (MCP1/CCL2; Conc. (X) 10000)?
Answer: −28.4419

Question: And the “MCP1/CCL2 secretion (baseline subtracted)” value (MCP1/CCL2)?
Answer: significantly decrease

Question: What about the “Fold Change MCP1 Secretion Normalized Per Cell, Mean” value (MCP-1; Conc. 5 X) of the same compound?
Answer: 0.8492

Question: And the “Fold Change MCP1 Secretion Normalized Per Cell, Mean” value (MCP-1; Conc. 10 X)?
Answer: 0.6565

Question: And the “Fold Change MCP1 Secretion Normalized Per Cell, Mean” value (MCP-1; Conc. 20 X)?
Answer: 0.5413

Question: What about the “Fold Change MCP1 Secretion Normalized Per Cell, Mean” value (MCP-1; Conc. 40 X) of the same compound?
Answer: 0.4485

Question: What about the “Fold Change MCP1 Secretion Normalized Per Cell” value (MCP-1; donor 3, Conc. 1000 μM) of the same compound?
Answer: 0.8492

Question: What about the “Fold Change MCP1 Secretion Normalized Per Cell” value (MCP-1; donor 3, Conc. 2500 μM) of the same compound?
Answer: 0.6565

Question: What about the “Fold Change MCP1 Secretion Normalized Per Cell” value (MCP-1; donor 3, Conc. 5000 μM) of the same compound?
Answer: 0.5413

Question: What about the “Fold Change MCP1 Secretion Normalized Per Cell” value (MCP-1; donor 3, Conc. 10000 μM) of the same compound?
Answer: 0.4485

Question: What about the “Fold Change MCP1 Secretion Normalized Per Cell” value (MCP-1; donor 4, Conc. 5 X) of the same compound?
Answer: 0.6437

Question: What about the “Fold Change MCP1 Secretion Normalized Per Cell” value (MCP-1; donor 4, Conc. 10 X) of the same compound?
Answer: 0.8033

Question: And the “Fold Change MCP1 Secretion Normalized Per Cell” value (MCP-1; donor 4, Conc. 20 X)?
Answer: 0.6728

Question: What about the “Fold Change MCP1 Secretion Normalized Per Cell” value (MCP-1; donor 4, Conc. 40 X) of the same compound?
Answer: 0.5011

Question: And the “MCP-1 chemokine secretion, per-cell normalized, fold change from plasma amino acid background” value (MCP-1)?
Answer: significantly reduced

Question: What about the “Fold Change IL-6 Secretion Normalized Per Cell” value (IL-6; donor 1, Conc. 5 X) of the same compound?
Answer: 0.7141

Question: And the “Fold Change IL-6 Secretion Normalized Per Cell” value (IL-6; donor 1, Conc. 10 X)?
Answer: 0.7354

Question: And the “Fold Change IL-6 Secretion Normalized Per Cell” value (IL-6; donor 1, Conc. 20 X)?
Answer: 0.6121

Question: And the “Fold Change IL-6 Secretion Normalized Per Cell” value (IL-6; donor 1, Conc. 40 X)?
Answer: 0.5716

Question: What about the “Fold Change IL-6 Secretion Normalized Per Cell” value (IL-6; donor 2, Conc. 5 X) of the same compound?
Answer: 0.9161

Question: What about the “Fold Change IL-6 Secretion Normalized Per Cell” value (IL-6; donor 2, Conc. 10 X) of the same compound?
Answer: 0.9180

Question: And the “Fold Change IL-6 Secretion Normalized Per Cell” value (IL-6; donor 2, Conc. 20 X)?
Answer: 0.8111

Question: What about the “Fold Change IL-6 Secretion Normalized Per Cell” value (IL-6; donor 2, Conc. 40 X) of the same compound?
Answer: 0.7064

Question: What about the “IL-6 cytokine secretion, per-cell normalized, fold change from plasma amino acid background” value (IL-6) of the same compound?
Answer: reduced IL-6 secretion in both donors but was only statistically significant in one of two donors
